Patent publication US10653146B2, “Microbiocidal oxadiazole derivatives” (SYNGENTA PARTICIPATIONS AG, priority 2016, dated 2020)

How the values were obtained:
[1] = tested on: Puccinia recondita f. Sp. Tritici; test: Fungicidal activity against Puccinia recondita f. sp. tritici / wheat / leaf disc preventative (brown rust); assay type: in vivo; conditions: foliar, 200 ppm in the applied formulation, wheat leaf segments cv. Kanzler, inoculated 1 day after application, assessed 7 to 9 days after application, read-out: disease control compared to untreated control leaf disks
Procedure: Leaf disks or leaf segments of various plant species are cut from plants grown in a greenhouse. The cut leaf disks or segments are placed in multiwell plates (24-well format) onto water agar. The leaf disks are sprayed with a test solution before (preventative) or after (curative) inoculation. Compounds to be tested are prepared as DMSO solutions (max. 10 mg/ml) which are diluted to the appropriate concentration with 0.025% Tween20 just before spraying. The inoculated leaf disks or segments are incubated under defined conditions (temperature, relative humidity, light, etc.) according to the respective test system. A single evaluation of disease level is carried out 3 to 14 days after inoculation, depending on the pathosystem. Percent disease control relative to the untreated check leaf disks or segments is then calculated. Wheat leaf segments cv. Kanzler were placed on agar in multiwell plates (24-well format) and sprayed with the formulated test compound diluted in water. The leaf disks were inoculated with a spore suspension of the fungus 1 day after application. The inoculated leaf segments were incubated at 19° C. and 75% relative humidity (rh) under a light regime of 12 hours light/12 hours darkness in a climate cabinet and the activity of a compound was assessed as percent disease control compared to untreated when an appropriate level of disease damage appears in untreated check leaf segments (7 to 9 days after application). The following compounds at 200 ppm in the applied formulation give at least 80% disease control in this test when compared to untreated control leaf disks under the same conditions, which show extensive disease development.

[2] = tested on: Phakopsora pachyrhizi; test: Fungicidal activity against Phakopsora pachyrhizi / soybean / leaf disc preventative (Asian soybean rust); assay type: in vivo; conditions: foliar, 200 ppm in the applied formulation, soybean leaf disks, inoculated one day after application, assessed 12 to 14 days after application, read-out: disease control compared to untreated control leaf disks
Procedure: (§1) Leaf disks or leaf segments of various plant species are cut from plants grown in a greenhouse. The cut leaf disks or segments are placed in multiwell plates (24-well format) onto water agar. The leaf disks are sprayed with a test solution before (preventative) or after (curative) inoculation. Compounds to be tested are prepared as DMSO solutions (max. 10 mg/ml) which are diluted to the appropriate concentration with 0.025% Tween20 just before spraying. The inoculated leaf disks or segments are incubated under defined conditions (temperature, relative humidity, light, etc.) according to the respective test system. A single evaluation of disease level is carried out 3 to 14 days after inoculation, depending on the pathosystem. Percent disease control relative to the untreated check leaf disks or segments is then calculated.
Soybean leaf disks are placed on water agar in multiwell plates (24-well format) and sprayed with the formulated test compound diluted in water. One day after application leaf discs are inoculated by spraying a spore suspension on the lower leaf surface. After an incubation period in a climate cabinet of 24-36 hours in darkness at 20° C. and 75% rh leaf disc are kept at 20° C. with 12 h light/day and 75% rh. The activity of a compound is assessed as percent disease control compared to untreated when an appropriate level of disease damage appears in untreated check leaf disks (12 to 14 days after application).
(§2) The following compounds at 200 ppm in the applied formulation give at least 80% disease control in this test when compared to untreated control leaf disks under the same conditions, which show extensive disease development.

[3] = tested on: Puccinia recondite f. Sp. Tritici; test: Fungicidal activity against Puccinia recondite f. sp. tritici / wheat / leaf disc curative (brown rust); assay type: in vivo; conditions: foliar, 200 ppm in the applied formulation, wheat leaf segments cv. Kanzler, applied 1 day after inoculation, assessed 6 to 8 days after application, read-out: disease control compared to untreated control leaf disks
Procedure: as §1
Wheat leaf segments cv. Kanzler are placed on agar in multiwell plates (24-well format). The leaf segments are then inoculated with a spore suspension of the fungus. Plates were stored in darkness at 19° C. and 75% relative humidity. The formulated test compound diluted in water was applied 1 day after inoculation. The leaf segments were incubated at 19° C. and 75% relative humidity under a light regime of 12 hours light/12 hours darkness in a climate cabinet and the activity of a compound was assessed as percent disease control compared to untreated when an appropriate level of disease damage appears in untreated check leaf segments (6 to 8 days after application).
as §2

[4] = tested on: Glomerella lagenarium (Colletotrichum lagenarium); test: Fungicidal activity against Glomerella lagenarium (Colletotrichum lagenarium) liquid culture / cucumber / preventative (anthracnose); assay type: cell-based; conditions: Colletotrichum orbiculare; 20 ppm in the applied formulation; liquid culture in PDB, 24° C.; 3 to 4 days after application; read-out: disease control compared to untreated control (inhibition of growth measured photometrically)
Procedure: Mycelia fragments or conidia suspensions of a fungus prepared either freshly from liquid cultures of the fungus or from cryogenic storage, are directly mixed into nutrient broth. DMSO solutions of the test compound (max. 10 mg/ml) are diluted with 0.025% Tween20 by a factor of 50 and 10 μl of this solution is pipetted into a microtiter plate (96-well format). The nutrient broth containing the fungal spores/mycelia fragments is then added to give an end concentration of the tested compound. The test plates are incubated in the dark at 24° C. and 96% relative humidity. The inhibition of fungal growth is determined photometrically after 2 to 7 days, depending on the pathosystem, and percent antifungal activity relative to the untreated check is calculated.
Conidia of the fungus from cryogenic storage are directly mixed into nutrient broth (PDB—potato dextrose broth). After placing a (DMSO) solution of test compound into a microtiter plate (96-well format), the nutrient broth containing the fungal spores is added. The test plates are incubated at 24° C. and the inhibition of growth is measured photometrically 3 to 4 days after application.
The following compounds at 20 ppm in the applied formulation give at least 80% disease control in this test when compared to untreated control under the same conditions, which show extensive disease development.

Row | SMILES | melting point | pest or weed control at 200 ppm [1] | pest or weed control at 200 ppm [2] | pest or weed control at 200 ppm [3] | inhibition at 20 ppm [4]
1 | O=C(NC1CCCC1(F)F)C(=O)c1ccc(-c2noc(C(F)(F)F)n2)cc1 (stereo not shown) [Compound 1.34, N-(2,2-difluoro-cyclopentyl)-2-oxo-2-[4-[5-(trifluoromethyl)-1,2,4-oxadiazol-3-yl]phenyl]acetamide] | 64 to 70 °C | ≥ 80% | ≥ 80% | ≥ 80% | ≥ 80%
2 | C#CCNC(=O)C(=O)c1ccc(-c2noc(C(F)(F)F)n2)cc1 [Compound 1.41, 2-oxo-N-prop-2-ynyl-2-[4-[5-(trifluoromethyl)-1,2,4-oxadiazol-3-yl]phenyl]acetamide] | 79 to 84 °C | ≥ 80% | ≥ 80% | ≥ 80% | ≥ 80%
3 | O=C(NCC1CC1)C(=O)c1ccc(-c2noc(C(F)(F)F)n2)cc1 [Compound 1.43, N-(cyclopropyl-methyl)-2-oxo-2-[4-[5-(trifluoromethyl)-1,2,4-oxadiazol-3-yl]phenyl]acetamide] | 86 to 95 °C | ≥ 80% | ≥ 80% | ≥ 80% | ≥ 80%

Now from value to compound, other results behind:

Row | melting point | SMILES | pest or weed control at 200 ppm [1] | pest or weed control at 200 ppm [2] | pest or weed control at 200 ppm [3] | inhibition at 20 ppm [4]
4 | 94 to 100 °C | O=C(NCCF)C(=O)c1ccc(-c2noc(C(F)(F)F)n2)cc1 [Compound 1.31, N-(2-fluoroethyl)-2-oxo-2-[4-[5-(trifluoromethyl)-1,2,4-oxadiazol-3-yl]phenyl]acetamide] | ≥ 80% | ≥ 80% | ≥ 80% | ≥ 80%
5 | 105 to 110 °C | CCNC(=O)C(=O)c1ccc(-c2noc(C(F)(F)F)n2)cc1 [Compound 1.39, N-ethyl-2-oxo-2-[4-[5-(trifluoromethyl)-1,2,4-oxadiazol-3-yl]phenyl]acetamide] | ≥ 80% | ≥ 80% | ≥ 80% | ≥ 80%
